Experimental data reported in ChEMBL document CHEMBL3045667, “Design, synthesis, and anticonvulsant activity of novel quinazolinone analogues” (Med Chem Res, 2011).

Columns and labels:
[1] = Lipophilicity, log P of the compound; type: physicochemical; details: octanol/water
Mus musculus [2] = test: Anticonvulsant activity in ip dosed Mus musculus (mouse) assessed as protection against pentylenetetrazole-induced seizures administered 1 hr before pentylenetetrazole challenge measured after 30 min; type: functional; details: read-out: PD50
Mus musculus [3] = test: Anticonvulsant activity in Mus musculus (mouse) assessed as protection against pentylenetetrazole-induced seizures at 150 mg/kg, ip administered 1 hr before pentylenetetrazole challenge measured after 30 min; type: functional; details: route intraperitoneal
Mus musculus [4] = test: Anticonvulsant activity in Mus musculus (mouse) assessed as protection against pentylenetetrazole-induced seizures at 100 mg/kg, ip administered 1 hr before pentylenetetrazole challenge measured after 30 min; type: functional; details: route intraperitoneal
Mus musculus [5] = test: Anticonvulsant activity in Mus musculus (mouse) assessed as protection against pentylenetetrazole-induced seizures at 50 mg/kg, ip administered 1 hr before pentylenetetrazole challenge measured after 30 min; type: functional; details: route intraperitoneal
Mus musculus [6] = test: Anticonvulsant activity in Mus musculus (mouse) assessed as protection against pentylenetetrazole-induced seizures at 20 mg/kg, ip administered 1 hr before pentylenetetrazole challenge measured after 30 min; type: functional; details: route intraperitoneal
Mus musculus [7] = test: Anticonvulsant activity in Mus musculus (mouse) assessed as protection against pentylenetetrazole-induced seizures at 15 mg/kg, ip administered 1 hr before pentylenetetrazole challenge measured after 30 min; type: functional; details: route intraperitoneal
Mus musculus [8] = test: Anticonvulsant activity in Mus musculus (mouse) assessed as protection against pentylenetetrazole-induced seizures at 10 mg/kg, ip administered 1 hr before pentylenetetrazole challenge measured after 30 min; type: functional; details: route intraperitoneal

Structure (SMILES): O=c1c2ccccc2nc(N/N=C/c2ccc(Cl)cc2)n1-c1ccccc1
- logP [1]: 5.53
- ED50 (Mus musculus [2]): 50 mg/kg
- Activity (Mus musculus [3]): 100%
- Activity (Mus musculus [4]): 100%
- Activity (Mus musculus [5]): 50%

Structure (SMILES): O=C(CSc1nc2ccccc2c(=O)n1-c1ccccc1)c1ccc(Br)cc1
- logP [1]: 5.77
- ED50 (Mus musculus [2]): 78 mg/kg
- Activity (Mus musculus [3]): 100%
- Activity (Mus musculus [4]): 50%
- Activity (Mus musculus [5]): 37.5%

Structure (SMILES): O=C1C=C(Sc2nc3ccccc3c(=O)n2-c2ccccc2)C(=O)N=N1
- logP [1]: 2.13
- ED50 (Mus musculus [2]): 66 mg/kg
- Activity (Mus musculus [3]): 100%
- Activity (Mus musculus [4]): 62.5%
- Activity (Mus musculus [5]): 37.5%

Structure (SMILES): O=C1NN=C(c2ccccc2)C(c2ccccc2)C1Sc1nc2ccccc2c(=O)n1-c1ccccc1 (stereo unspecified)
- logP [1]: 6.4
- ED50 (Mus musculus [2]): 68 mg/kg
- Activity (Mus musculus [3]): 87.5%
- Activity (Mus musculus [4]): 62.5%
- Activity (Mus musculus [5]): 37.5%

Structure (SMILES): O=C(CSc1nc2ccccc2c(=O)n1-c1ccccc1)c1ccc(Cl)cc1
- logP [1]: 5.5
- ED50 (Mus musculus [2]): 80 mg/kg
- Activity (Mus musculus [3]): 87.5%
- Activity (Mus musculus [4]): 62.5%
- Activity (Mus musculus [5]): 25%

Structure (SMILES): CCn1c(SCC(=O)c2ccc(Br)cc2)nc2ccccc2c1=O
- logP [1]: 4.45
- ED50 (Mus musculus [2]): 86 mg/kg
- Activity (Mus musculus [3]): 87.5%
- Activity (Mus musculus [4]): 50%
- Activity (Mus musculus [5]): 37.5%

Structure (SMILES): COc1ccc(C(=O)CSc2nc3ccccc3c(=O)n2-c2ccccc2)cc1
- logP [1]: 4.82
- ED50 (Mus musculus [2]): 85 mg/kg
- Activity (Mus musculus [3]): 87.5%
- Activity (Mus musculus [4]): 50%
- Activity (Mus musculus [5]): 37.5%

Structure (SMILES): N#Cc1cnn(-c2nc3ccccc3c(=O)n2-c2ccccc2)c1N
- logP [1]: 3.01
- ED50 (Mus musculus [2]): 90 mg/kg
- Activity (Mus musculus [3]): 87.5%
- Activity (Mus musculus [4]): 50%
- Activity (Mus musculus [5]): 25%

Structure (SMILES): COc1ccc(/C=N/Nc2nc3ccccc3c(=O)n2-c2ccccc2)cc1OC
- logP [1]: 4.72
- ED50 (Mus musculus [2]): 83 mg/kg
- Activity (Mus musculus [3]): 87.5%
- Activity (Mus musculus [4]): 62.5%
- Activity (Mus musculus [5]): 25%

Structure (SMILES): O=c1c2ccccc2n2c(-c3ccc(Cl)cc3)nnc2n1-c1ccccc1
- logP [1]: 5.25
- ED50 (Mus musculus [2]): 64 mg/kg
- Activity (Mus musculus [3]): 100%
- Activity (Mus musculus [4]): 62.5%
- Activity (Mus musculus [5]): 37.5%

Structure (SMILES): COc1ccc(-c2nnc3n(-c4ccccc4)c(=O)c4ccccc4n23)cc1OC
- logP [1]: 4.44
- ED50 (Mus musculus [2]): 160 mg/kg
- Activity (Mus musculus [3]): 50%
- Activity (Mus musculus [4]): 37.5%
- Activity (Mus musculus [5]): 12.5%

Structure (SMILES): CN1C(=O)CN=C(c2ccccc2)c2cc(Cl)ccc21 [DIAZEPAM]
- ED50 (Mus musculus [2]): 2 mg/kg

Structure (SMILES): CCC1(c2ccccc2)C(=O)NC(=O)NC1=O [PHENOBARBITAL]
- logP [1]: 1.36
- ED50 (Mus musculus [2]): 16 mg/kg
- Activity (Mus musculus [6]): 62.5%
- Activity (Mus musculus [7]): 50%
- Activity (Mus musculus [8]): 37.5%
